Our source for the IC50 values is patent publication US20250186437A1, “CARBOLINE COMPOUNDS AND USE THEREOF” (PTC Therapeutics, Inc., priority 2021, published 2025).

This experiment has as its system MOLM-13 cells. The experiment can be described thus: MOLM-13 Cell Proliferation Assay (indicator of DHODH inhibition). In kind it is cell-based. The note with it: Homo sapiens, 72 Hours of culture, CellTiter-Glo, no uridine. Summed up: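 Proliferation readout via CellTiter-Glo luminescence after 72 h compound treatment (37 °C, 5% CO2, 0.5% DMSO) of MOLM-13 cells seeded at 10^4 per well in RPMI 1640/10% FBS, used as a DHODH-inhibition indicator since these cells rely on de novo pyrimidine synthesis.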
In general terms: In ATP-based viability assays light output follows the ATP content of the culture.
With `Cc1cc(C(F)(F)F)nc(N2CCc3c([nH]c4cc(F)c(Cl)cc34)C2c2cccc(F)c2F)n1` (centres unmarked) [Compound 147, 6-chloro-1-(2,3-difluorophenyl)-7-fluoro-2-[4-methyl-6-(trifluoromethyl)pyrimidin-2-yl]-2,3,4,9-tetrahydro-1H-pyrido[3,4-b]indole], the IC50 (as a rule, the concentration that gives 50% inhibition) was determined as 1.3 nM. With `Cc1cc(C(F)(F)F)nc(N2CCc3c([nH]c4cc(F)c(Cl)cc34)C2c2ccc(C)c(F)c2F)n1` (centres unmarked) [Compound 148, 6-chloro-1-(2,3-difluoro-4-methylphenyl)-7-fluoro-2-[4-methyl-6-(trifluoromethyl)pyrimidin-2-yl]-2,3,4,9-tetrahydro-1H-pyrido[3,4-b]indole], it took 0.9 nM to reach half-maximal inhibition (IC50). Consider `NS(=O)(=O)c1ccc(C2c3[nH]c4ccc(Cl)c(F)c4c3CCN2c2nccc(C(F)(F)F)n2)cc1` (centres unmarked) [Compound 150, 4-{6-chloro-5-fluoro-2-[4-(trifluoromethyl)pyrimidin-2-yl]-2,3,4,9-tetrahydro-1H-pyrido[3,4-b]indol-1-yl}benzene-1-sulfonamide], for which the IC50 came to 8.9 nM. `Cc1ccc(C2c3[nH]c4cc(F)c(Cl)cc4c3CCN2c2nc(C)cc(C#N)n2)cc1` (centres unmarked) [Compound 151, 2-[6-chloro-7-fluoro-1-(4-methylphenyl)-1,3,4,9-tetrahydro-2H-pyrido[3,4-b]indol-2-yl]-6-methylpyrimidine-4-carbonitrile] displayed an IC50 of 4.5 nM. `Cc1cc(C#N)nc(N2CCc3c([nH]c4cc(F)c(Cl)cc34)C2c2cccc(F)c2F)n1` (centres unmarked) [Compound 152, 2-[6-chloro-1-(2,3-difluorophenyl)-7-fluoro-1,3,4,9-tetrahydro-2H-pyrido[3,4-b]indol-2-yl]-6-methylpyrimidine-4-carbonitrile] gave an IC50 of 3.7 nM. For `Cc1cc(C#N)nc(N2CCc3c([nH]c4cc(F)c(Cl)cc34)C2c2ccc(C)c(F)c2F)n1` (centres unmarked) [Compound 153, 2-[6-chloro-1-(2,3-difluoro-4-methylphenyl)-7-fluoro-1,3,4,9-tetrahydro-2H-pyrido[3,4-b]indol-2-yl]-6-methylpyrimidine-4-carbonitrile], the half-inhibitory concentration (IC50) is 1.1 nM. `Cc1ccc(C2c3[nH]c4cc(F)c(Cl)cc4c3CCN2c2nc(C(F)(F)F)cc(C(F)(F)F)n2)cc1` (centres unmarked) [Compound 154, 2-[4,6-bis(trifluoromethyl)pyrimidin-2-yl]-6-chloro-7-fluoro-1-(4-methylphenyl)-2,3,4,9-tetrahydro-1H-pyrido[3,4-b]indole] had an IC50 of 0.9 nM.

For `Cc1ccc(C2c3[nH]c4cc(F)c(Cl)cc4c3CCN2c2nc(C(F)(F)F)cc(C(F)(F)F)n2)c(F)c1F` (centres unmarked) [Compound 155, 2-[4,6-bis(trifluoromethyl)pyrimidin-2-yl]-6-chloro-1-(2,3-difluoro-4-methylphenyl)-7-fluoro-2,3,4,9-tetrahydro-1H-pyrido[3,4-b]indole], half-maximal inhibition (IC50) was put at 0.5 nM. As to `OCCCc1ccc(C2c3[nH]c4cc(F)c(Cl)cc4c3CCN2c2nccc(C(F)(F)F)n2)cc1` (centres unmarked) [Compound 156, 3-(4-{6-chloro-7-fluoro-2-[4-(trifluoromethyl)pyrimidin-2-yl]-2,3,4,9-tetrahydro-1H-pyrido[3,4-b]indol-1-yl}phenyl)propan-1-ol], the midpoint of inhibition, the IC50, lay at 4 nM. As for `CN(C)c1ncc(C2c3[nH]c4cc(F)c(Cl)cc4c3CCN2c2nccc(C(F)(F)F)n2)cc1F` (centres unmarked) [Compound 158, 5-{6-chloro-7-fluoro-2-[4-(trifluoromethyl)pyrimidin-2-yl]-2,3,4,9-tetrahydro-1H-pyrido[3,4-b]indol-1-yl}-3-fluoro-N,N-dimethylpyridin-2-amine], the midpoint of inhibition, the IC50, lay at 9.8 nM. In turn, `OCCCc1ccc(C2c3[nH]c4cc(F)c(Cl)cc4c3CCN2c2ncc(F)cn2)cc1` (centres unmarked) [Compound 159, 3-{4-[6-chloro-7-fluoro-2-(5-fluoropyrimidin-2-yl)-2,3,4,9-tetrahydro-1H-pyrido[3,4-b]indol-1-yl]phenyl}propan-1-ol] returned an IC50 of 27.1 nM.

With `CN(C)c1ncc(C2c3[nH]c4ccc(Cl)c(F)c4c3CCN2c2nccc(C(F)(F)F)n2)cc1F` (centres unmarked) [Compound 160, 5-{6-chloro-5-fluoro-2-[4-(trifluoromethyl)pyrimidin-2-yl]-2,3,4,9-tetrahydro-1H-pyrido[3,4-b]indol-1-yl}-3-fluoro-N,N-dimethylpyridin-2-amine], 3.5 nM corresponded to half-maximal inhibition (IC50). The figure for `Cc1ccc([C@H]2c3[nH]c4ccc(Cl)cc4c3CCN2c2nccc(C(F)(F)F)n2)cc1` [Compound 161, (1S)-6-chloro-1-(4-methylphenyl)-2-[4-(trifluoromethyl)pyrimidin-2-yl]-2,3,4,9-tetrahydro-1H-pyrido[3,4-b]indole] is 1.2 nM; for `Cc1ccc(C2c3[nH]c4cc(F)c(Cl)cc4c3CCN2c2ncc(F)c(C#N)n2)c(F)c1F` (centres unmarked) [Compound 162, 2-[6-chloro-1-(2,3-difluoro-4-methylphenyl)-7-fluoro-1,3,4,9-tetrahydro-2H-pyrido[3,4-b]indol-2-yl]-5-fluoropyrimidine-4-carbonitrile] it is 2.4 nM. Regarding `Cc1ccc(C2c3[nH]c4cc(F)c(Cl)cc4c3CCN2c2nc(C)c(C)c(C)n2)cc1` (centres unmarked) [Compound 163, 6-chloro-7-fluoro-1-(4-methylphenyl)-2-(4,5,6-trimethylpyrimidin-2-yl)-2,3,4,9-tetrahydro-1H-pyrido[3,4-b]indole], the IC50 was 10.9 nM. `COC(=O)CCc1ccc(C2c3[nH]c4cc(F)c(Cl)cc4c3CCN2c2nccc(C(F)(F)F)n2)cc1` (centres unmarked) [Compound 164, methyl 3-(4-{6-chloro-7-fluoro-2-[4-(trifluoromethyl)pyrimidin-2-yl]-2,3,4,9-tetrahydro-1H-pyrido[3,4-b]indol-1-yl}phenyl)propanoate] registered an IC50 of 4 nM. The figure for `COC(=O)CCc1ccc(C2c3[nH]c4cc(F)c(Cl)cc4c3CCN2c2ncc(F)cn2)cc1` (centres unmarked) [Compound 165, methyl 3-{4-[6-chloro-7-fluoro-2-(5-fluoropyrimidin-2-yl)-2,3,4,9-tetrahydro-1H-pyrido[3,4-b]indol-1-yl]phenyl}propanoate] is 16.7 nM.

For `OCc1ccc(C2c3[nH]c4cc(F)c(Cl)cc4c3CCN2c2nccc(C(F)(F)F)n2)cc1` (centres unmarked) [Compound 166, (4-{6-chloro-7-fluoro-2-[4-(trifluoromethyl)pyrimidin-2-yl]-2,3,4,9-tetrahydro-1H-pyrido[3,4-b]indol-1-yl}phenyl)methanol], half-maximal inhibition (IC50) required 7.1 nM. In the case of `OCC/C=C/c1ccc(C2c3[nH]c4cc(F)c(Cl)cc4c3CCN2c2nccc(C(F)(F)F)n2)cc1` (centres unmarked) [Compound 167, (3E)-4-(4-{6-chloro-7-fluoro-2-[4-(trifluoromethyl)pyrimidin-2-yl]-2,3,4,9-tetrahydro-1H-pyrido[3,4-b]indol-1-yl}phenyl)but-3-en-1-ol], the IC50 amounted to 1.1 nM. `OCCCCc1ccc(C2c3[nH]c4cc(F)c(Cl)cc4c3CCN2c2nccc(C(F)(F)F)n2)cc1` (centres unmarked) [Compound 168, 4-(4-{6-chloro-7-fluoro-2-[4-(trifluoromethyl)pyrimidin-2-yl]-2,3,4,9-tetrahydro-1H-pyrido[3,4-b]indol-1-yl}phenyl)butan-1-ol] registered an IC50 of 4.1 nM. Regarding `Cc1ccc(C2c3[nH]c4cc(F)c(Cl)cc4c3CCN2c2nc(C)c(C)c(C)n2)c(F)c1F` (centres unmarked) [Compound 169, 6-chloro-1-(2,3-difluoro-4-methylphenyl)-7-fluoro-2-(4,5,6-trimethylpyrimidin-2-yl)-2,3,4,9-tetrahydro-1H-pyrido[3,4-b]indole], the IC50 stood at 2.2 nM. For `CN(C)c1ccc(C2c3[nH]c4cc(F)c(Cl)cc4c3CCN2c2nccc(C(F)(F)F)n2)cc1` (centres unmarked) [Compound 170, 4-{6-chloro-7-fluoro-2-[4-(trifluoromethyl)pyrimidin-2-yl]-2,3,4,9-tetrahydro-1H-pyrido[3,4-b]indol-1-yl}-N,N-dimethylaniline] the value was 10.6 nM. In turn, `Cc1nc(N2CCc3c([nH]c4cc(F)c(Cl)cc34)C2c2cccc(F)c2F)nc(C)c1C` (centres unmarked) [Compound 171, 6-chloro-1-(2,3-difluorophenyl)-7-fluoro-2-(4,5,6-trimethylpyrimidin-2-yl)-2,3,4,9-tetrahydro-1H-pyrido[3,4-b]indole] returned an IC50 of 5 nM. The figure for `Fc1cc2[nH]c3c(c2cc1Cl)CCN(c1nccc(C(F)(F)F)n1)C3c1ccc(Br)c(F)c1F` (centres unmarked) [Compound 172, 1-(4-bromo-2,3-difluorophenyl)-6-chloro-7-fluoro-2-[4-(trifluoromethyl)pyrimidin-2-yl]-2,3,4,9-tetrahydro-1H-pyrido[3,4-b]indole] is 1.5 nM. `CN(C)c1ccc(C2c3[nH]c4cc(F)c(Cl)cc4c3CCN2c2nccc(C(F)(F)F)n2)c(F)c1F` (centres unmarked) [Compound 173, 4-{6-chloro-7-fluoro-2-[4-(trifluoromethyl)pyrimidin-2-yl]-2,3,4,9-tetrahydro-1H-pyrido[3,4-b]indol-1-yl}-2,3-difluoro-N,N-dimethylaniline]: the half-inhibitory concentration (IC50) came out at 8.6 nM. For `Cc1ccc(C2c3[nH]c4ccc(C)c(F)c4c3CCN2c2nccc(C(F)(F)F)n2)cc1` (centres unmarked) [Compound 174, 5-fluoro-6-methyl-1-(4-methylphenyl)-2-[4-(trifluoromethyl)pyrimidin-2-yl]-2,3,4,9-tetrahydro-1H-pyrido[3,4-b]indole] the value was 7.8 nM; for `Cc1ccc(C2c3[nH]c4cc(F)c(Cl)cc4c3CCN2c2ncc(F)c(C#N)n2)cc1` (centres unmarked) [Compound 175, 2-[6-chloro-7-fluoro-1-(4-methylphenyl)-1,3,4,9-tetrahydro-2H-pyrido[3,4-b]indol-2-yl]-5-fluoropyrimidine-4-carbonitrile], 4.7 nM; for `Cc1ccc([C@@H]2c3[nH]c4ccc(Cl)cc4c3CCN2c2nccc(C#N)n2)c(F)c1F` [Compound 176, 2-[(1R)-6-chloro-1-(2,3-difluoro-4-methylphenyl)-1,3,4,9-tetrahydro-2H-pyrido[3,4-b]indol-2-yl]pyrimidine-4-carbonitrile], 58.1 nM. `CN(C)c1ccc(C2c3[nH]c4ccc(Cl)c(F)c4c3CCN2c2nccc(C(F)(F)F)n2)cn1` (centres unmarked) [Compound 177, 5-{6-chloro-5-fluoro-2-[4-(trifluoromethyl)pyrimidin-2-yl]-2,3,4,9-tetrahydro-1H-pyrido[3,4-b]indol-1-yl}-N,N-dimethylpyridin-2-amine] gave an IC50 of 3.9 nM.
